# Assay results published in paper PMC11277489, “Novel Piperazine Derivatives of Vindoline as Anticancer Agents” (International Journal of Molecular Sciences, 2024).
# Like-named read-outs stand apart in the source and are kept apart here.
# What was measured:
# MDA-MB231ATCC = experiment: NCI60 five-dose screen, Breast Cancer; type: cell-based; conditions: Homo sapiens, MDA-MB-231; MDA-MB231ATCC, Breast Cancer; five-dose screen; read-out: GI50
# MDA-MB-468 = experiment: NCI60 one-dose screen (10 μM), Breast Cancer; type: cell-based; conditions: Homo sapiens; 10 μM; MDA-MB-468, Breast Cancer; read-out: Growth percent rate
# EKVX = experiment: NCI60 one-dose screen (10 μM), Non-small Cell Lung Cancer; type: cell-based; conditions: Homo sapiens, 10 μM, Non-small Cell Lung Cancer, read-out: Growth percent rate
# SK-MEL-5 = experiment: NCI60 five-dose screen, Melanoma; type: cell-based; conditions: Homo sapiens; SK-MEL-5, Melanoma; five-dose screen; read-out: GI50
# NCI/ADR-RES [1] = experiment: NCI60 five-dose screen, Ovarian Cancer; type: cell-based; conditions: Homo sapiens, Ovarian Cancer, five-dose screen, read-out: GI50
# OVCAR-5 [2] = experiment: NCI60 one-dose screen (10 μM), Ovarian Cancer; type: cell-based; conditions: Homo sapiens; 10 μM; OVCAR-5, Ovarian Cancer; read-out: Growth percent rate
# A549/ATCC = experiment: NCI60 five-dose screen, Non-small Cell Lung Cancer; type: cell-based; conditions: Homo sapiens; A549/ATCC, Non-small Cell Lung Cancer; five-dose screen; read-out: GI50
# NCI-H226 = experiment: NCI60 one-dose screen (10 μM), Non-small Cell Lung Cancer; type: cell-based; conditions: Homo sapiens; 10 μM; NCI-H226, Non-small Cell Lung Cancer; read-out: Growth percent rate
# SW-620 = experiment: NCI60 five-dose screen, Colon Cancer; type: cell-based; conditions: Homo sapiens; SW-620, Colon Cancer; five-dose screen; read-out: GI50
# CCRF-CEM = experiment: NCI60 five-dose screen, Leukemia; type: cell-based; conditions: Homo sapiens, Leukemia, five-dose screen, read-out: GI50
# HL-60(TB) = experiment: NCI60 five-dose screen, Leukemia; type: cell-based; conditions: Homo sapiens; HL-60(TB), Leukemia; five-dose screen; read-out: GI50
# M14 = experiment: NCI60 five-dose screen, Melanoma; type: cell-based; conditions: Homo sapiens; M14, Melanoma; five-dose screen; read-out: GI50
# UACC-62 [3] = experiment: NCI60 one-dose screen (10 μM), Melanoma; type: cell-based; conditions: Homo sapiens; 10 μM; UACC-62, Melanoma; read-out: Growth percent rate
# OVCAR-5 [4] = experiment: NCI60 five-dose screen, Ovarian Cancer; type: cell-based; conditions: Homo sapiens; OVCAR-5, Ovarian Cancer; five-dose screen; read-out: GI50
# ACHN = experiment: NCI60 five-dose screen, Renal Cancer; type: cell-based; conditions: Homo sapiens, Renal Cancer, five-dose screen, read-out: GI50
# [5] = test system: 60 human tumor cell lines (NCI60); experiment: NCI60 five-dose screen, whole panel and sub-panel means; type: cell-based; conditions: read-out: GI50 Mean
# SK-OV-3 = experiment: NCI60 one-dose screen (10 μM), Ovarian Cancer; type: cell-based; conditions: Homo sapiens; 10 μM; SK-OV-3, Ovarian Cancer; read-out: Growth percent rate
# HOP-92 [6] = experiment: NCI60 five-dose screen, Non-small Cell Lung Cancer; type: cell-based; conditions: Homo sapiens; HOP-92, Non-small Cell Lung Cancer; five-dose screen; read-out: GI50
# MALME-3M = experiment: NCI60 five-dose screen, Melanoma; type: cell-based; conditions: Homo sapiens; MALME-3M, Melanoma; five-dose screen; read-out: GI50
# NCI-H460 = experiment: NCI60 five-dose screen, Non-small Cell Lung Cancer; type: cell-based; conditions: Homo sapiens; NCI-H460, Non-small Cell Lung Cancer; five-dose screen; read-out: GI50
# UACC-257 = experiment: NCI60 five-dose screen, Melanoma; type: cell-based; conditions: Homo sapiens; UACC-257, Melanoma; five-dose screen; read-out: GI50
# BT-549 = experiment: NCI60 one-dose screen (10 μM), Breast Cancer; type: cell-based; conditions: Homo sapiens; 10 μM; BT-549, Breast Cancer; read-out: Growth percent rate
# HOP-62 = experiment: NCI60 five-dose screen, Non-small Cell Lung Cancer; type: cell-based; conditions: Homo sapiens; HOP-62, Non-small Cell Lung Cancer; five-dose screen; read-out: GI50
# PC-3 = experiment: NCI60 one-dose screen (10 μM), Prostate Cancer; type: cell-based; conditions: Homo sapiens; 10 μM; PC-3, Prostate Cancer; read-out: Growth percent rate
# OVCAR-4 [7] = experiment: NCI60 one-dose screen (10 μM), Ovarian Cancer; type: cell-based; conditions: Homo sapiens; 10 μM; OVCAR-4, Ovarian Cancer; read-out: Growth percent rate
# NCI-H23 [8] = experiment: NCI60 five-dose screen, Non-small Cell Lung Cancer; type: cell-based; conditions: Homo sapiens; NCI-H23, Non-small Cell Lung Cancer; five-dose screen; read-out: GI50
# NCI-H23 [9] = experiment: NCI60 one-dose screen (10 μM), Non-small Cell Lung Cancer; type: cell-based; conditions: Homo sapiens; 10 μM; NCI-H23, Non-small Cell Lung Cancer; read-out: Growth percent rate
# MDA-MB-231/ATCC = experiment: NCI60 one-dose screen (10 μM), Breast Cancer; type: cell-based, human; conditions: Homo sapiens; 10 μM; MDA-MB-231/ATCC, Breast Cancer; read-out: Growth percent rate
# NCI-H322M = experiment: NCI60 five-dose screen, Non-small Cell Lung Cancer; type: cell-based; conditions: Homo sapiens, Non-small Cell Lung Cancer, five-dose screen, read-out: GI50
# HCC-2998 [10] = experiment: NCI60 one-dose screen (10 μM), Colon Cancer; type: cell-based; conditions: Homo sapiens; 10 μM; HCC-2998, Colon Cancer; read-out: Growth percent rate
# UO-31 = experiment: NCI60 one-dose screen (10 μM), Renal Cancer; type: cell-based; conditions: Homo sapiens; 10 μM; UO-31, Renal Cancer; read-out: Growth percent rate
# MCF7 = experiment: NCI60 five-dose screen, Breast Cancer; type: cell-based; conditions: Homo sapiens; MCF7, Breast Cancer; five-dose screen; read-out: GI50
# SR = experiment: NCI60 one-dose screen (10 μM), Leukemia; type: cell-based; conditions: Homo sapiens, 10 μM, Leukemia, read-out: Growth percent rate
# MOLT-4 = experiment: NCI60 five-dose screen, Leukemia; type: cell-based; conditions: Homo sapiens; MOLT-4, Leukemia; five-dose screen; read-out: GI50
# HOP-92 [11] = experiment: NCI60 one-dose screen (10 μM), Non-small Cell Lung Cancer; type: cell-based; conditions: Homo sapiens; 10 μM; HOP-92, Non-small Cell Lung Cancer; read-out: Growth percent rate
# NCI/ADR-RES [12] = experiment: NCI60 one-dose screen (10 μM), Ovarian Cancer; type: cell-based; conditions: Homo sapiens, 10 μM, Ovarian Cancer, read-out: Growth percent rate
# OVCAR-4 [13] = experiment: NCI60 five-dose screen, Ovarian Cancer; type: cell-based; conditions: Homo sapiens; OVCAR-4, Ovarian Cancer; five-dose screen; read-out: GI50
# UACC-62 [14] = experiment: NCI60 five-dose screen, Melanoma; type: cell-based; conditions: Homo sapiens; UACC-62, Melanoma; five-dose screen; read-out: GI50
# T-47D = experiment: NCI60 one-dose screen (10 μM), Breast Cancer; type: cell-based; conditions: Homo sapiens, T47D; 10 μM; T-47D, Breast Cancer; read-out: Growth percent rate
# HCC-2998 [15] = experiment: NCI60 five-dose screen, Colon Cancer; type: cell-based; conditions: Homo sapiens; HCC-2998, Colon Cancer; five-dose screen; read-out: GI50
# CAKI-1 [16] = experiment: NCI60 five-dose screen, Renal Cancer; type: cell-based; conditions: Homo sapiens; CAKI-1, Renal Cancer; five-dose screen; read-out: GI50
# CAKI-1 [17] = experiment: NCI60 one-dose screen (10 μM), Renal Cancer; type: cell-based; conditions: Homo sapiens; 10 μM; CAKI-1, Renal Cancer; read-out: Growth percent rate
# MDA-MB-435 = experiment: NCI60 one-dose screen (10 μM), Melanoma; type: cell-based; conditions: Homo sapiens; 10 μM; MDA-MB-435, Melanoma; read-out: Growth percent rate
# [18] = Homo sapiens, 60 cell, mean over all 60 cell lines
# [19] = Homo sapiens, mean over Breast Cancer panel
# [20] = Homo sapiens, mean over CNS Cancer panel
# [21] = Homo sapiens, mean over Colon Cancer panel
# [22] = Homo sapiens, mean over Leukemia panel
# [23] = Homo sapiens, mean over Melanoma panel
# [24] = Homo sapiens, mean over Non-small Cell Lung Cancer panel
# [25] = Homo sapiens, mean over Ovarian Cancer panel
# [26] = Homo sapiens, mean over Prostate Cancer panel
# [27] = Homo sapiens, mean over Renal Cancer panel
structure (smiles),measurement,setting,value
CC[C@]12C=CCN3CC[C@@]4(c5ccc(OC)cc5N(C)[C@H]4[C@@](O)(C(=O)OC)[C@@H]1OC(=O)CCC(=O)N1CCN(c4ccc(C(F)(F)F)cc4)CC1)[C@@H]32 [Compound 28],GI50,MDA-MB231ATCC,4.17 µM
same,activity at 10 µM,MDA-MB-468,-42.8%
same,activity at 10 µM,EKVX,20.9%
same,GI50,SK-MEL-5,3.24 µM
same,GI50,NCI/ADR-RES [1],3.31 µM
same,activity at 10 µM,OVCAR-5 [2],2.55%
same,GI50,A549/ATCC,2.75 µM
same,activity at 10 µM,NCI-H226,14.9%
same,GI50,SW-620,3.98 µM
same,GI50,CCRF-CEM,1.66 µM
same,GI50,HL-60(TB),1.45 µM
same,GI50,M14,2.4 µM
same,activity at 10 µM,UACC-62 [3],-75.8%
same,GI50,OVCAR-5 [4],5.25 µM
same,GI50,ACHN,3.8 µM
same,GI50,[5]; [18],< 4 µM
same,GI50,[5]; [19],3.44 µM
same,GI50,[5]; [20],3.69 µM
same,GI50,[5]; [21],3.16 µM
same,GI50,[5]; [22],1.81 µM
same,GI50,[5]; [23],3.63 µM
same,GI50,[5]; [24],4.23 µM
same,GI50,[5]; [25],3.92 µM
same,GI50,[5]; [26],3.85 µM
same,GI50,[5]; [27],3.67 µM
same,GI50,[5]; mean over all 60 cell lines,3.55 µM
same,activity at 10 µM,SK-OV-3,37.5%
same,GI50,HOP-92 [6],2.09 µM
same,GI50,MALME-3M,5.37 µM
same,GI50,NCI-H460,3.31 µM
same,GI50,UACC-257,3.89 µM
same,activity at 10 µM,BT-549,12.9%
same,GI50,HOP-62,5.5 µM
same,activity at 10 µM,PC-3,3.75%
same,activity at 10 µM,OVCAR-4 [7],6.5%
same,GI50,NCI-H23 [8],4.37 µM
same,activity at 10 µM,NCI-H23 [9],8.32%
same,activity at 10 µM,MDA-MB-231/ATCC,-47%
same,GI50,NCI-H322M,10 µM
same,activity at 10 µM,HCC-2998 [10],-75.2%
same,activity at 10 µM,UO-31,10.3%
same,GI50,MCF7,2.95 µM
same,activity at 10 µM,SR,18.4%
same,GI50,MOLT-4,1.17 µM
same,activity at 10 µM,HOP-92 [11],-3.33%
same,activity at 10 µM,NCI/ADR-RES [12],5.44%
same,GI50,OVCAR-4 [13],4.27 µM
same,GI50,UACC-62 [14],2.88 µM
same,activity at 10 µM,T-47D,38.4%
same,GI50,HCC-2998 [15],2.4 µM
same,GI50,CAKI-1 [16],2 µM
same,activity at 10 µM,CAKI-1 [17],-10.2%
same,activity at 10 µM,MDA-MB-435,5.7%
CC[C@]12C=CCN3CC[C@@]4(c5ccc(OC)cc5N(C)[C@H]4[C@@](O)(C(=O)OC)[C@@H]1OC(=O)CCCN1CCN(c4ccc(C(F)(F)F)cc4)CC1)[C@@H]32 [Compound 22],GI50,MDA-MB231ATCC,2.82 µM
same,activity at 10 µM,MDA-MB-468,-83.4%
same,activity at 10 µM,EKVX,-49.9%
same,GI50,SK-MEL-5,1.7 µM
same,GI50,NCI/ADR-RES [1],2.29 µM
same,activity at 10 µM,OVCAR-5 [2],-31.1%
same,GI50,A549/ATCC,2.95 µM
same,activity at 10 µM,NCI-H226,-50.7%
same,GI50,SW-620,2.95 µM
same,GI50,CCRF-CEM,1.86 µM
same,GI50,HL-60(TB),1.66 µM
same,GI50,M14,1.86 µM
same,activity at 10 µM,UACC-62 [3],-90.9%
same,GI50,OVCAR-5 [4],4.07 µM
same,GI50,ACHN,3.24 µM
same,GI50,[5]; [18],< 4 µM
same,GI50,[5]; [19],2.51 µM
same,GI50,[5]; [20],2.47 µM
same,GI50,[5]; [21],2.02 µM
same,GI50,[5]; [22],1.77 µM
same,GI50,[5]; [23],1.98 µM
same,GI50,[5]; [24],2.88 µM
same,GI50,[5]; [25],3.05 µM
same,GI50,[5]; [26],2.67 µM
same,GI50,[5]; [27],2.59 µM
same,GI50,[5]; mean over all 60 cell lines,2.44 µM
same,activity at 10 µM,SK-OV-3,23.6%
same,GI50,HOP-92 [6],1.95 µM
same,GI50,MALME-3M,1.58 µM
same,GI50,NCI-H460,1.86 µM
same,GI50,UACC-257,1.82 µM
same,activity at 10 µM,BT-549,-69.1%
same,GI50,HOP-62,3.02 µM
same,activity at 10 µM,PC-3,-25.4%
same,activity at 10 µM,OVCAR-4 [7],-18.9%
same,GI50,NCI-H23 [8],4.57 µM
same,activity at 10 µM,NCI-H23 [9],-61.1%
same,activity at 10 µM,MDA-MB-231/ATCC,-67.4%
same,GI50,NCI-H322M,3.72 µM
same,activity at 10 µM,HCC-2998 [10],-82.3%
same,activity at 10 µM,UO-31,2.06%
same,GI50,MCF7,2 µM
same,activity at 10 µM,SR,14.2%
same,GI50,MOLT-4,1.95 µM
same,activity at 10 µM,HOP-92 [11],-30.9%
same,activity at 10 µM,NCI/ADR-RES [12],-10.9%
same,GI50,OVCAR-4 [13],3.8 µM
same,GI50,UACC-62 [14],3.31 µM
same,activity at 10 µM,T-47D,-11.4%
same,GI50,HCC-2998 [15],1.82 µM
same,GI50,CAKI-1 [16],2.24 µM
same,activity at 10 µM,CAKI-1 [17],-65%
same,activity at 10 µM,MDA-MB-435,-78.9%
